Test results reported in US5942489A, “HGH-RH(1-29)NH2 analogues having antagonistic activity” (The Administrators of the Tulane Educational Fund, priority 1996, dated 1999).
Where a SMILES comes first, the peptide text is derived from it. Bridges are numbered along the chain shown (N, C = ends). [ ]: non-standard residue; d: D form. The star is where a group is joined. Phe(4-Cl) = N[C@@H](Cc1ccc(Cl)cc1)C(=O)O; 2Nal = N[C@@H](Cc1ccc2ccccc2c1)C(=O)O; Cit = NC(=O)NCCC[C@H](N)C(=O)O; Agmatine = N=C(N)NCCCCN*; Nle = CCCC[C@H](N)C(=O)O; Orn = NCCC[C@H](N)C(=O)O; Abu = CC[C@H](N)C(=O)O; PhAc = O=C(Cc1ccccc1)*

Key:
[1] = biological target: T1, rat pituitary GH-RH receptors (Rattus norvegicus, UniProt Q02644); experiment: GH-RH radioreceptor binding assay, competition with labelled [His1,Nle27]hGH-RH(1-32)NH2; conditions: rat anterior pituitary membrane homogenates; read-out: Ki values, K
T1 construct: from tissue; host or cells: anterior pituitary of male Sprague-Dawley rats, crude membranes
T1 sequence (Q02644 23-464): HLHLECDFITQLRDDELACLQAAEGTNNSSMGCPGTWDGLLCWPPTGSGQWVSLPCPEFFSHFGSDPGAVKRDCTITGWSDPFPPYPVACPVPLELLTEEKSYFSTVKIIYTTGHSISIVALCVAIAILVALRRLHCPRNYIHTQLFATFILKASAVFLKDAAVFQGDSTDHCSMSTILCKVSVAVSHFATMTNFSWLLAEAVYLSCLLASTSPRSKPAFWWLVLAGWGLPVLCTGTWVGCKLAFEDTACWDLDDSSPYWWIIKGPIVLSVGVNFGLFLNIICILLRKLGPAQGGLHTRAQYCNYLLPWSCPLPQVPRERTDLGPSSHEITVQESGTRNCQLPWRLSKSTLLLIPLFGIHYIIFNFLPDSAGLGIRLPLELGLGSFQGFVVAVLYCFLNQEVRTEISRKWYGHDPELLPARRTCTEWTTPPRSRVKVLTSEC
Method: GH-RH Binding Assay. A sensitive radioreceptor binding assay was developed to determine the binding characteristics of the antagonists of GH-RH (G. Halmos, A. V. Schally et al., Receptor 3, 87-97, 1993), hereby incorporated by reference. The assay is based on binding of labelled [His^1, Nle^27 ]hGH-RH(1-32)NH2 to rat anterior pituitary membrane homogenates. Iodinated derivatives of [His^1, Nle^27 ]hGH-RH(1-32)NH2 are prepared by the chloramine-T method (F. C. Greenwood et al., Biochemistry 89:114-123, 1963), hereby incorporated by reference. Pituitaries from male Sprague-Dawley rats (250-300 g) are used to prepare crude membranes. For saturation binding analyses, membrane homogenates are incubated with at least 6 concentrations of [His^1,125I-Tyr^10,Nle^27 ]hGH-RH(1-32)NH2, ranging from 0.005 to 0.35 nM in the presence or absence of excess unlabelled peptide (1 μM).
The pellet is counted for radioactivity in a γ-counter. The affinities of the antagonist peptides tested to rat pituitary GH-RH receptors are determined in competitive binding experiments. The final binding affinities are estimated by Ki (dissociation constant of the inhibitor-receptor complex) and are determined by the Ligand PC computer program of Munson and Rodbard as modified by McPherson. Relative affinities compared to [Ac-Tyr^1, D-Arg^2 ]hGH-RH(1-29)NH2, the Standard antagonist, are calculated as the ratio of Ki of the tested GH-RH antagonist to the Ki of the Standard antagonist.

[2] = test system: GH release induced by 1 nM hGH-RH(1-29)NH2 in superfused rat pituitary cells; experiment: Inhibition of hGH-RH(1-29)NH2-induced GH release in superfused rat pituitary system; assay type: cell-based; conditions: 30 nM peptide; for Inhibition of GH release (%) 0 min: 0 min response; for Inhibition of GH release (%) 30 min: 30 min response; for Inhibition of GH release (%) 60 min: 60 min response; for Inhibition of GH release (%) 90 min: 90 min response; for Inhibition of GH release (%) 120 min: 120 min response
Method: Superfused Rat Pituitary System. The analogues were tested in vitro in a test described earlier (S. Vigh and A. V. Schally, Peptides 5:241-[…], 1984) with modification (Z. Rekasi and A. V. Schally, P. N. A. S. 90:2146-2149, 1993).
Briefly, the cells are preincubated with peptides for 9 minutes (3 mL) at various concentrations. Immediately after the incubation, 1 nM hGH-RH(1-29)NH2 is administered for 3 minutes (1 mL) [0 minute response]. To check the duration of the antagonistic effect of the analogue, 1 nM hGH-RH(1-29)NH2 is applied 30, 60, 90, and 120 minutes later for 3 minutes [30, 60, 90, 120 min responses]. Net integral values of the GH responses are evaluated. GH responses are compared to and expressed as percent of the original GH response induced by 1 nM GH-RH(1-29)NH2. The effect of the new antagonists are compared to that of [Ac-Tyr^1,D-Arg^2 ]hGH-RH(1-29)NH2, the "Standard antagonist".
Growth Hormone Radio-immunoassay. Rat GH levels in aliquots of undiluted and diluted superfusion samples were measured by double-antibody radioimmunoassay using materials supplied by the National Hormone and Pituitary Program, Baltimore, Md. The results of RIA were analyzed with a computer program developed in our institute (V. Csernus and A. V. Schally, Harwood Academic (Greenstein, B. C. ed., London, pp. 71-109, 1991), hereby incorporated by reference. Inter-assay variation was less than 15% and intra-assay variation was less than 10%.

Row | Molecule | Ki [1] [nM] | Inhibition of GH release (%) 0 min [2] [%] | Inhibition of GH release (%) 30 min [2] [%] | Inhibition of GH release (%) 60 min [2] [%] | Inhibition of GH release (%) 90 min [2] [%] | Inhibition of GH release (%) 120 min [2] [%]
1 | CCCC[C@H](NC(=O)[C@@H](NC(=O)[C@H](CC(=O)O)NC(=O)[C@H](CCC(N)=O)NC(=O)[C@H](CC(C)C)NC(=O)[C@H](CC(C)C)NC(=O)[C@H](CCCCN)NC(=O)[C@H](CCCNC(=N)N)NC(=O)[C@H](C)NC(=O)[C@H](CO)NC(=O)[C@H](CC(C)C)NC(=O)[C@H](CCC(N)=O)NC(=O)[C@H](CC)NC(=O)[C@H](CC(C)C)NC(=O)[C@@H](NC(=O)[C@H](CCCCN)NC(=O)[C@H](CCCNC(=N)N)NC(=O)[C@H](Cc1ccc(O)cc1)NC(=O)[C@H](CO)NC(=O)[C@H](CC)NC(=O)[C@@H](NC(=O)[C@H](Cc1ccc(Cl)cc1)NC(=O)[C@@H](NC(=O)[C@H](C)NC(=O)[C@H](CC(=O)O)NC(=O)[C@@H](CCCNC(=N)N)NC(=O)[C@H](Cc1ccc(O)cc1)NC(=O)Cc1ccccc1)[C@@H](C)CC)[C@@H](C)O)C(C)C)[C@@H](C)CC)C(=O)N[C@@H](CO)C(=O)N[C@@H](CCCNC(N)=O)C(N)=O [Peptide 3, [PhAc^0,D-Arg^2,Phe(pCl)^6,Abu^8,15,Nle^27,Cit^29]hGH-RH(1-29)-NH2] (PhAc-Y[dR]DAI[Phe(4-Cl)]T[Abu]SYRKVL[Abu]QLSARKLLQDI[Nle]S[Cit]-NH2) | 0.301 ± 0.14 |  |  |  |  | 
2 | CCCC[C@H](NC(=O)[C@@H](NC(=O)[C@H](CC(=O)O)NC(=O)[C@H](CCC(N)=O)NC(=O)[C@H](CC(C)C)NC(=O)[C@H](CC(C)C)NC(=O)[C@H](CCCCN)NC(=O)[C@H](CCCNC(=N)N)NC(=O)[C@H](C)NC(=O)[C@H](CO)NC(=O)[C@H](CC(C)C)NC(=O)[C@H](CCC(N)=O)NC(=O)[C@H](C)NC(=O)[C@H](CC(C)C)NC(=O)[C@@H](NC(=O)[C@H](CCCCN)NC(=O)[C@H](CCCNC(=N)N)NC(=O)[C@H](Cc1ccc(O)cc1)NC(=O)[C@H](CO)NC(=O)[C@H](CC(N)=O)NC(=O)[C@@H](NC(=O)[C@H](Cc1ccc(Cl)cc1)NC(=O)[C@@H](NC(=O)[C@H](C)NC(=O)[C@H](CC(=O)O)NC(=O)[C@@H](CCCNC(=N)N)NC(=O)[C@H](Cc1ccc(O)cc1)NC(=O)Cc1ccccc1)[C@@H](C)CC)[C@@H](C)O)C(C)C)[C@@H](C)CC)C(=O)N[C@@H](CC(=O)O)C(=O)NCCCCNC(=N)N [Peptide 5, [PhAc^0,D-Arg^2,Phe(pCl)^6,Ala^15,Nle^27,Asp^28]hGH-RH(1-28)Agm] (PhAc-Y[dR]DAI[Phe(4-Cl)]TNSYRKVLAQLSARKLLQDI[Nle]D-Agmatine) | 0.096 |  |  |  |  | 
3 | CCCC[C@H](NC(=O)[C@@H](NC(=O)[C@H](CC(=O)O)NC(=O)[C@H](CCC(N)=O)NC(=O)[C@H](CC(C)C)NC(=O)[C@H](CC(C)C)NC(=O)[C@H](CCCCN)NC(=O)[C@H](CCCNC(=N)N)NC(=O)[C@H](C)NC(=O)[C@H](CO)NC(=O)[C@H](CC(C)C)NC(=O)[C@H](CCC(N)=O)NC(=O)[C@H](CC)NC(=O)[C@H](CC(C)C)NC(=O)[C@@H](NC(=O)[C@H](CCCCN)NC(=O)[C@H](CCCNC(=N)N)NC(=O)[C@H](Cc1ccc(O)cc1)NC(=O)[C@H](CO)NC(=O)[C@H](CC(N)=O)NC(=O)[C@@H](NC(=O)[C@H](Cc1ccc(Cl)cc1)NC(=O)[C@@H](NC(=O)[C@H](C)NC(=O)[C@H](CC(=O)O)NC(=O)[C@@H](CCCNC(=N)N)NC(=O)[C@H](Cc1ccc(O)cc1)NC(=O)Cc1ccccc1)[C@@H](C)CC)[C@@H](C)O)C(C)C)[C@@H](C)CC)C(=O)N[C@@H](CO)C(=O)NCCCCNC(=N)N [Peptide 8, [PhAc^0,D-Arg^2,Phe(pCl)^6,Abu^15,Nle^27]hGH-RH(1-28)Agm] (PhAc-Y[dR]DAI[Phe(4-Cl)]TNSYRKVL[Abu]QLSARKLLQDI[Nle]S-Agmatine) | 0.0159 ± 0.01 |  |  |  |  | 
4 | CCCC[C@H](NC(=O)[C@@H](NC(=O)[C@H](CC(=O)O)NC(=O)[C@H](CCC(N)=O)NC(=O)[C@H](CC(C)C)NC(=O)[C@H](CC(C)C)NC(=O)[C@H](CCCCN)NC(=O)[C@H](CCCNC(=N)N)NC(=O)[C@H](C)NC(=O)[C@H](CO)NC(=O)[C@H](CC(C)C)NC(=O)[C@H](CCC(N)=O)NC(=O)[C@H](C)NC(=O)[C@H](CC(C)C)NC(=O)[C@@H](NC(=O)[C@H](CCCCN)NC(=O)[C@H](CCCNC(=N)N)NC(=O)[C@H](Cc1ccc(O)cc1)NC(=O)[C@H](CO)NC(=O)[C@H](CC)NC(=O)[C@@H](NC(=O)[C@H](Cc1ccc2ccccc2c1)NC(=O)[C@@H](NC(=O)[C@H](C)NC(=O)[C@H](CC(=O)O)NC(=O)[C@@H](CCCNC(=N)N)NC(=O)[C@H](Cc1ccc(O)cc1)NC(=O)Cc1ccccc1)[C@@H](C)CC)[C@@H](C)O)C(C)C)[C@@H](C)CC)C(=O)N[C@@H](CC)C(=O)N[C@@H](CCCNC(=N)N)C(N)=O [Peptide 12, [PhAc^0,D-Arg^2,Nal^6,Abu^8,28,Ala^15,Nle^27]hGH-RH(1-29)NH2] (PhAc-Y[dR]DAI[2Nal]T[Abu]SYRKVLAQLSARKLLQDI[Nle][Abu]R-NH2) |  | 87.0 | 61.0 | 37.0 | 34.0 | 41.0
5 | CCCC[C@@H]1NC(=O)[C@H]([C@@H](C)CC)NC(=O)[C@H](NC(=O)[C@H](CCC(N)=O)NC(=O)[C@H](CC(C)C)NC(=O)[C@H](CC(C)C)NC(=O)[C@H](CCCCN)NC(=O)[C@H](CCCNC(=N)N)NC(=O)[C@H](C)NC(=O)[C@H](CO)NC(=O)[C@H](CC(C)C)NC(=O)[C@H](CCC(N)=O)NC(=O)[C@H](C)NC(=O)[C@H](CC(C)C)NC(=O)[C@@H](NC(=O)[C@H](CCCCN)NC(=O)[C@H](CCCNC(=N)N)NC(=O)[C@H](Cc2ccc(O)cc2)NC(=O)[C@H](CO)NC(=O)[C@H](CC)NC(=O)[C@@H](NC(=O)[C@H](Cc2ccc3ccccc3c2)NC(=O)[C@@H](NC(=O)[C@H](C)NC(=O)[C@H](CC(=O)O)NC(=O)[C@@H](CCCNC(=N)N)NC(=O)[C@H](Cc2ccc(O)cc2)NC(=O)Cc2ccccc2)[C@@H](C)CC)[C@@H](C)O)C(C)C)CC(=O)NCCC[C@@H](C(N)=O)NC(=O)[C@H](CO)NC1=O [Peptide 20, cyclo^25,29 [PhAc^0,D-Arg^2,Nal^6,Abu^8,Ala^15,D-Asp^25,Nle^27,Orn^29]hGH-RH(1-29)NH2] (PhAc-Y[dR]DAI[2Nal]T[Abu]SYRKVLAQLSARKLLQ[dD]I[Nle]S[Orn]-NH2; lactam 25-29) |  | 11.0 | 0.0 | 0.0 | 13.0 | 
6 | [PhAc^0,Tyr(Me),D-Arg^2,Phe(pCl)^6,Ala^15,Nle^27 ]hGH-RH(1-29)-NH2 [Peptide 10] |  | 84.8 | 35.2 | 38.2 | 29.8 | 33.8
